Drawing on ChEMBL document CHEMBL3991601, “The target landscape of clinical kinase drugs” (Science, 2017), this text covers Kd for eight compounds.

Active and inactive are the calls of the source. Cut-off read from the data, not from the text of the source, for most assays here: actives have a measured Kd and inactives only a lower limit.

A word on the Kd: it is the equilibrium constant for the complex coming apart.

The target of experiment [1] is Serine/threonine-protein kinase pim-1 (Homo sapiens, UniProt P11309).
Experiment [2] has as its target Tyrosine-protein kinase Lyn (Homo sapiens, UniProt P07948).
Experiment [3] addresses Tyrosine-protein kinase BTK (Homo sapiens, UniProt Q06187).
Experiment [4] addresses T1, Tyrosine--tRNA ligase, cytoplasmic (Homo sapiens, UniProt P54577).
T1 sequence (P54577 whole entry): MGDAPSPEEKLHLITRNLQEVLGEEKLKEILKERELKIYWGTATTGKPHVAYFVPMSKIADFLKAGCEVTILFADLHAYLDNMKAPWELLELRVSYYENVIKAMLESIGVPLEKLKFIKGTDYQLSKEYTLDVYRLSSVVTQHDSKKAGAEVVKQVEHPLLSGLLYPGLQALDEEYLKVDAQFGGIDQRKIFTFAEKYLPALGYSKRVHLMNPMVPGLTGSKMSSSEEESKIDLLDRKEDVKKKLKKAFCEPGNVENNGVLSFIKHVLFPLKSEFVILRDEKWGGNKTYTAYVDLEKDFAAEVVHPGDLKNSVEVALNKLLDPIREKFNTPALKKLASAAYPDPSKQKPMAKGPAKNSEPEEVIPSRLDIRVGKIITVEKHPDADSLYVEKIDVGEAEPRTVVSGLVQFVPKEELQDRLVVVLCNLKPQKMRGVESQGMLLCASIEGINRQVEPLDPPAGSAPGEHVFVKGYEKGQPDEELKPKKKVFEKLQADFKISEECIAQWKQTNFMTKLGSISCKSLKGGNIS

Experiment [5] deals with Protein-tyrosine kinase 6 (Homo sapiens, UniProt Q13882).
Experiment [6] deals with Serine/threonine-protein kinase N1 (Homo sapiens, UniProt Q16512).
Experiment [7] deals with Myosin light chain kinase, smooth muscle (Homo sapiens, UniProt Q15746).
The target of experiment [8] is Serine/threonine-protein kinase MRCK gamma (Homo sapiens, UniProt Q6DT37).
The target of experiment [9] is T2, Serine/threonine-protein kinase Nek9 (Homo sapiens, UniProt Q8TD19).
T2 sequence (Q8TD19 whole entry): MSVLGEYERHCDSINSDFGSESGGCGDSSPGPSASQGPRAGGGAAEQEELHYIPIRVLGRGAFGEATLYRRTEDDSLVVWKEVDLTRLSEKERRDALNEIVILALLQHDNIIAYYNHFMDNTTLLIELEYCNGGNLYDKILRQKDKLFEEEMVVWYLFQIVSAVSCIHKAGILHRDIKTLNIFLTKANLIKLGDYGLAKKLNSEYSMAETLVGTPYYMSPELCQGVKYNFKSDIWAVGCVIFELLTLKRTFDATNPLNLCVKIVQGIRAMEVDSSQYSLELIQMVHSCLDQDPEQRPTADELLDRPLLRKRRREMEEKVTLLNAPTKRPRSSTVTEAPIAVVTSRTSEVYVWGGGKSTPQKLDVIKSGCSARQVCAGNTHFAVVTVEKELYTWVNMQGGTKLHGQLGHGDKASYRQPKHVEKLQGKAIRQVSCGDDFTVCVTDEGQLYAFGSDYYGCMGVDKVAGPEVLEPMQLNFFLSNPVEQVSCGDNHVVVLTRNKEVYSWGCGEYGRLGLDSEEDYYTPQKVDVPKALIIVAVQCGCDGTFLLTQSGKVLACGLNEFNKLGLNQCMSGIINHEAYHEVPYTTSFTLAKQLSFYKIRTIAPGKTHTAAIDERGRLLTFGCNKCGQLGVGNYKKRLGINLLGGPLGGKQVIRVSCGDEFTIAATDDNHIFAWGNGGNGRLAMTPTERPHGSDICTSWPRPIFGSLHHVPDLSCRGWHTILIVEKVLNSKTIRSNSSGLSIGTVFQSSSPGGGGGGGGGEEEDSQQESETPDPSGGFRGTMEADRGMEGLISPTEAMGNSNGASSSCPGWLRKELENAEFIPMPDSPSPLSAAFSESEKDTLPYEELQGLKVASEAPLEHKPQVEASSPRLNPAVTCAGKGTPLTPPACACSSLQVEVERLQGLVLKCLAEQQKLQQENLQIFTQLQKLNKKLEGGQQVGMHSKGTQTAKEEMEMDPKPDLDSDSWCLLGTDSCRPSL

The target in the next experiment is Actin-related protein 2 (Homo sapiens, UniProt P61160).
Experiment [10] addresses Casein kinase II subunit alpha' (Homo sapiens, UniProt P19784).
Experiment [11] has as its target Calcium/calmodulin-dependent protein kinase kinase 2 (Homo sapiens, UniProt Q96RR4).
The target in experiment [12] is T3, Serine/threonine-protein kinase D3 (Homo sapiens, UniProt O94806).
T3 sequence (O94806 whole entry): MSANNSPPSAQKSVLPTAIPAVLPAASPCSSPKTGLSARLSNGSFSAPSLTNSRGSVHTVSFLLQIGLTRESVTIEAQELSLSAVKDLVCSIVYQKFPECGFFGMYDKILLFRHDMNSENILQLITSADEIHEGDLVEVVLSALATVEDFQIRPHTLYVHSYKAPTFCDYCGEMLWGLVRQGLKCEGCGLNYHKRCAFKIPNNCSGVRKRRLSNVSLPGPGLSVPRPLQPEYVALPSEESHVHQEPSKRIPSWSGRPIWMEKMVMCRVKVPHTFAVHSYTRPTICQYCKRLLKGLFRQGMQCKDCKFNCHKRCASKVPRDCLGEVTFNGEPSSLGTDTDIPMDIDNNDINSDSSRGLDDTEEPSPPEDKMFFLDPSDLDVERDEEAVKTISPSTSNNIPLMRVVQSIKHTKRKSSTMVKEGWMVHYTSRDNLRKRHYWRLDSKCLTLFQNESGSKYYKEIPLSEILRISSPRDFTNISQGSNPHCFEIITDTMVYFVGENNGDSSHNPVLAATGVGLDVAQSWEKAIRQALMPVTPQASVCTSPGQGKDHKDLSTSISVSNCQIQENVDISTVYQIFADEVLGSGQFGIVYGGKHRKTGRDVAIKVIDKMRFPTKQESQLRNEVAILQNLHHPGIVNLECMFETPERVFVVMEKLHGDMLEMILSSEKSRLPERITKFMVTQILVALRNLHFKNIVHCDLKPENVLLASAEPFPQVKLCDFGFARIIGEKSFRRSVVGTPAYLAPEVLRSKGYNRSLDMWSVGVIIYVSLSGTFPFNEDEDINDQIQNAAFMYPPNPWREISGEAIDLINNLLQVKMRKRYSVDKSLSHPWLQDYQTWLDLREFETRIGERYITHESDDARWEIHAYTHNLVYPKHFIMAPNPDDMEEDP
Note: in the data inactive means no Kd found up to 30 µM.

Sequence of Casein kinase II subunit alpha' (P19784 whole entry): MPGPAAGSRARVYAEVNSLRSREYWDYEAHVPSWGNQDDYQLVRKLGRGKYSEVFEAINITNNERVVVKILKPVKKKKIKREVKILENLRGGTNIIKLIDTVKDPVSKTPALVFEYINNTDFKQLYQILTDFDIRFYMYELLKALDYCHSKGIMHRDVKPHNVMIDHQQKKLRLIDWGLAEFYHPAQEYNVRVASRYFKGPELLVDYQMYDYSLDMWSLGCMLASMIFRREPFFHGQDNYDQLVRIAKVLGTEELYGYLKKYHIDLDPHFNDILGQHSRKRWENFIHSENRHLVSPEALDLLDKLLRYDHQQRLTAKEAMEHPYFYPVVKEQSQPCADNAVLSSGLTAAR
Sequence of Calcium/calmodulin-dependent protein kinase kinase 2 (Q96RR4 whole entry): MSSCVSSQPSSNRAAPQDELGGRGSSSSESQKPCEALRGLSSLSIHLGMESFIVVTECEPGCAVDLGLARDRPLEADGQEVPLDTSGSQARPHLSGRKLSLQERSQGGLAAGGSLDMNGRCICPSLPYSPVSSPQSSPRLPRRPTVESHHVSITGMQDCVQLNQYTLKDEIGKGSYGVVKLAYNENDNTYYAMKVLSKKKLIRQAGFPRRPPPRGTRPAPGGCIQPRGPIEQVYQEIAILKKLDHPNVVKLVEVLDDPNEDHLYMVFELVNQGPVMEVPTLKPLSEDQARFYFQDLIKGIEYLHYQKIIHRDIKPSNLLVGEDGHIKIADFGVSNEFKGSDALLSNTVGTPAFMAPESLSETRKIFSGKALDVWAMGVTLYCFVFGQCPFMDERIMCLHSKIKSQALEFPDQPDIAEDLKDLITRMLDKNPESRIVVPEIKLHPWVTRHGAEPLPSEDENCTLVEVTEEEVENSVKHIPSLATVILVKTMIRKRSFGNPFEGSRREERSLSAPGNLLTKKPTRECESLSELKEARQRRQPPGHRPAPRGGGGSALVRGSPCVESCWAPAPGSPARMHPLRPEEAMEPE
Sequence of Tyrosine-protein kinase Lyn (P07948 whole entry): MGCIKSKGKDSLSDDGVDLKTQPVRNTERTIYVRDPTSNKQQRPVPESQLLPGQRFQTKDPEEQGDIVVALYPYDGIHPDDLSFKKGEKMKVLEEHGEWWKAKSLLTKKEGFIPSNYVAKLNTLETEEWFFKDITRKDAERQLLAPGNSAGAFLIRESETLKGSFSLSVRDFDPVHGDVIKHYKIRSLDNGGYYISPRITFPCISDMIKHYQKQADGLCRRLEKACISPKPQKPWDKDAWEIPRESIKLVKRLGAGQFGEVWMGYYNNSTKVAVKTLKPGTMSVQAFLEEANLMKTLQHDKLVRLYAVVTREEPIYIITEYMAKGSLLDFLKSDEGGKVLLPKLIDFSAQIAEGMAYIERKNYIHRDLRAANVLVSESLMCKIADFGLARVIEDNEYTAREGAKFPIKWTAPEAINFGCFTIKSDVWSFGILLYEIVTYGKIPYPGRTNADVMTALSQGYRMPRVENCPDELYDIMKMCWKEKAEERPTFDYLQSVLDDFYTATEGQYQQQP
Sequence of Serine/threonine-protein kinase N1 (Q16512 whole entry): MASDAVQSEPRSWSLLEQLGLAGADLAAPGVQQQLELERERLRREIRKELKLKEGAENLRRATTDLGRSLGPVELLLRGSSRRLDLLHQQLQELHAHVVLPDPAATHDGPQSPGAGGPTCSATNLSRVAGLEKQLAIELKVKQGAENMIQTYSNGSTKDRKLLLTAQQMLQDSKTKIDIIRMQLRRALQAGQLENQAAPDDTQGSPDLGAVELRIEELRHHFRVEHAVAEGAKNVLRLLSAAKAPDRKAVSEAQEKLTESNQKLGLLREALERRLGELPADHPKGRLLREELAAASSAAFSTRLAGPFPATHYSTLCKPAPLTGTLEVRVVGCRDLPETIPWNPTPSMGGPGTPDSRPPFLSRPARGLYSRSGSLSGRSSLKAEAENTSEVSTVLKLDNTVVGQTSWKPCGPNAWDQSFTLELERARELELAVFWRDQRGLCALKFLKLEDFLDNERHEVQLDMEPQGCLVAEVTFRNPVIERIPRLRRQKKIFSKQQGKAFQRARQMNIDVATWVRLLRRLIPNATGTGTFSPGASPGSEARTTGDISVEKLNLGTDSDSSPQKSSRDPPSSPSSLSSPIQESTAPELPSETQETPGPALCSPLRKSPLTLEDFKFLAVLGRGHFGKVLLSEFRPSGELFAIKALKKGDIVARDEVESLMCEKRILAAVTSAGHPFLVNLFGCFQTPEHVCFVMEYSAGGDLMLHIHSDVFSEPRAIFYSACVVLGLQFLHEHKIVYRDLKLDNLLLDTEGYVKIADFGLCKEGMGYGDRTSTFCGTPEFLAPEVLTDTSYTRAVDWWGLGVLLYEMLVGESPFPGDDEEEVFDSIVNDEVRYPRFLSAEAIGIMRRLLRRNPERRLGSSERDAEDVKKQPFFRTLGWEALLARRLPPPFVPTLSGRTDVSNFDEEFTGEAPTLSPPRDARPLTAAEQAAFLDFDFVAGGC
Sequence of Serine/threonine-protein kinase MRCK gamma (Q6DT37 whole entry): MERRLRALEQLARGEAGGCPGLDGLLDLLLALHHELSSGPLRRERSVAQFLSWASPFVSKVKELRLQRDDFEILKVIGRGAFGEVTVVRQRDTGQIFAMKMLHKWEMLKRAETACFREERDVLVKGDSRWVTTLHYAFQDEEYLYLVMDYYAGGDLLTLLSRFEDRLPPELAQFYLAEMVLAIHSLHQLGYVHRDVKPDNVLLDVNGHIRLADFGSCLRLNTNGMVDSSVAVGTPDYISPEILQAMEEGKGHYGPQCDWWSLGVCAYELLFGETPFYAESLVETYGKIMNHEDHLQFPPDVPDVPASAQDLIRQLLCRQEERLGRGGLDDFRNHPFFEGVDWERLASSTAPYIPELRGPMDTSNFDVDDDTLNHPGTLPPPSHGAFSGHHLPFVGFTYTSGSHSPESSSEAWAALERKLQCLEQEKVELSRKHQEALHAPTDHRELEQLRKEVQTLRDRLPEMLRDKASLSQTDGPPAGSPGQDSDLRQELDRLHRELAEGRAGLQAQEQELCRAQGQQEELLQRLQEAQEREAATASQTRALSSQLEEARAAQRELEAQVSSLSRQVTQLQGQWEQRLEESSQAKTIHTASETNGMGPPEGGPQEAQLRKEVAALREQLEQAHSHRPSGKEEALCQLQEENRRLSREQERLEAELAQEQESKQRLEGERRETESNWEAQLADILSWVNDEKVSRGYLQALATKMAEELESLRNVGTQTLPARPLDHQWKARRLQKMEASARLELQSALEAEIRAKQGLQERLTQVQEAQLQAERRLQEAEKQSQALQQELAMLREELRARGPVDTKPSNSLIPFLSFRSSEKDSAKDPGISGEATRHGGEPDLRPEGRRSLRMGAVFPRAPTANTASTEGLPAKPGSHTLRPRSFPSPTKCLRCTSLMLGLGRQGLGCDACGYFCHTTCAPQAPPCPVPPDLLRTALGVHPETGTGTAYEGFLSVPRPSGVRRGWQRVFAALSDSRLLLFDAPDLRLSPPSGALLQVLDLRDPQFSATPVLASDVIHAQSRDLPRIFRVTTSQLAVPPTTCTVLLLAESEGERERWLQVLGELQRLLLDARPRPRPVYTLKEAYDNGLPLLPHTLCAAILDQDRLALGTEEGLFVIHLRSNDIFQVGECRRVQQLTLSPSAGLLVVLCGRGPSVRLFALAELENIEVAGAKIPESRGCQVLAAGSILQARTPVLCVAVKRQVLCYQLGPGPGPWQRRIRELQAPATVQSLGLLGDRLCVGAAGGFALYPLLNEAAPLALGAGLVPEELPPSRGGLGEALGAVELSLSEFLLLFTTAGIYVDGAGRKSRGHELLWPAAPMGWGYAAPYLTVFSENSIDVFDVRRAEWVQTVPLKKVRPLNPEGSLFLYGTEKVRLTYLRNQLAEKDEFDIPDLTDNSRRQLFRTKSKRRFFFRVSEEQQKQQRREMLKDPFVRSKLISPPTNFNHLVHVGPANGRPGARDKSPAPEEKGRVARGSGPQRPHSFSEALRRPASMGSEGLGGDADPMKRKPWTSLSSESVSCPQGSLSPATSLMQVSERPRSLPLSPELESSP
Sequence of Serine/threonine-protein kinase pim-1 (P11309 whole entry): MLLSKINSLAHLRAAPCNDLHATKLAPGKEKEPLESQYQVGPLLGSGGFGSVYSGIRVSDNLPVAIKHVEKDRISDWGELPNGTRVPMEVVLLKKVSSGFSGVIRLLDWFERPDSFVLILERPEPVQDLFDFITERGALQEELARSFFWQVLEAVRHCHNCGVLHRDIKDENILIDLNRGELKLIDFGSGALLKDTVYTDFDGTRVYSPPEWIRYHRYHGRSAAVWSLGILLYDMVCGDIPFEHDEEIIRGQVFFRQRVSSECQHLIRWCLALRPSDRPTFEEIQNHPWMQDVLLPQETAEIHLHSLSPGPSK
Sequence of Tyrosine-protein kinase BTK (Q06187 whole entry): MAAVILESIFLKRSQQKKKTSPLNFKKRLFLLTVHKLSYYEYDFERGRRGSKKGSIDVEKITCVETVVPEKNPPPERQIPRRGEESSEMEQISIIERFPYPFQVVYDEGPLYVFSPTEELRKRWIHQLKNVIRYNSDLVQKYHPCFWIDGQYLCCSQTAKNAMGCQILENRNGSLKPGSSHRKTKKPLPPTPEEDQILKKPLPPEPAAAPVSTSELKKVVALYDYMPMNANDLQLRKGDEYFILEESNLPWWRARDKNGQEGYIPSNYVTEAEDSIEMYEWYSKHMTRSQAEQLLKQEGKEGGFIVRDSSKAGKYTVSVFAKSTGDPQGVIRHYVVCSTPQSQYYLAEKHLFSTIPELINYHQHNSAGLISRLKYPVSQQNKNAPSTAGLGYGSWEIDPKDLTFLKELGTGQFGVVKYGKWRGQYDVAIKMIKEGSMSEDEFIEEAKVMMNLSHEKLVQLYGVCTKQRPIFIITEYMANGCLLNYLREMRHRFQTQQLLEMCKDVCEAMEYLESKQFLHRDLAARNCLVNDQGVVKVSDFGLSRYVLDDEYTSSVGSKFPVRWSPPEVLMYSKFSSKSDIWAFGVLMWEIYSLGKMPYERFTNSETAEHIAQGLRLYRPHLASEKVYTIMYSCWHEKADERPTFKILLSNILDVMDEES

For the compound `S=C(NCc1ccc2c(c1)OCO2)N1CCN(c2ncnc3c2oc2ccccc23)CC1` [AMUVATINIB], the Kd in experiment [1], in [2], in experiment [3], in experiment [4], in experiment [5] and in [6] was > 30 µM (inactive) in each case. Besides, the Kd (in [7]; in experiment [8]; in experiment [9]; at Actin-related protein 2; in [10]; in [11]) was > 30 µM (inactive) each time. Also, the Kd in [12] is > 30 µM (inactive).
In the case of `O[C@H]1CC[C@H](Nc2ncc3nc(Nc4c(F)cc(F)cc4F)n([C@H]4CCOC4)c3n2)CC1` [TANZISERTIB], the Kd in [1], in [2], in experiment [3], in experiment [4], in experiment [5] and in [6] was > 30 µM (inactive) throughout. Moreover, the Kd in experiment [7] is 2.63 µM; in experiment [8], > 30 µM (inactive); in experiment [9], > 30 µM (inactive); on Actin-related protein 2, > 30 µM (inactive); in experiment [10] it was > 30 µM (inactive); in [11], > 30 µM (inactive). Further, the Kd in [12] was > 30 µM (inactive).
In the case of `COc1cccc2cc(-c3nc([C@H]4CC[C@H](C(=O)O)CC4)n4ncnc(N)c34)[nH]c12` [OSI-027], the Kd in experiment [1], in experiment [2], in [3], in experiment [4], in [5] and in experiment [6] was > 30 µM (inactive) in each case. In addition, the Kd in experiment [7] is > 30 µM (inactive); in experiment [8], > 30 µM (inactive); in experiment [9], > 30 µM (inactive); at Actin-related protein 2 it was > 30 µM (inactive); in experiment [10], 1.6 µM (active); in experiment [11], > 30 µM (inactive). For the same compound, in [12], the Kd is > 30 µM (inactive).
On to `O=c1[nH]c([C@@H]2CCCN2)nc2c1oc1ccc(Cl)cc12`, for which the Kd in experiment [1] was 0.022 µM (active); in experiment [2], > 30 µM (inactive); in experiment [3], > 30 µM (inactive); in [4] it was > 30 µM (inactive); in experiment [5], > 30 µM (inactive); in experiment [6], > 30 µM (inactive). The Kd in [7] was > 30 µM (inactive); in experiment [8], > 30 µM (inactive); in experiment [9], > 30 µM (inactive); at Actin-related protein 2, > 30 µM (inactive); in experiment [10], 0.022 µM (active); in experiment [11] it was > 30 µM (inactive). In addition, the Kd in [12] is > 30 µM (inactive).
As to `c1cc(OCCN2CCCCC2)cc(-c2n[nH]c3ccc(-c4nc[nH]n4)cc23)c1` [CC-401], the Kd in experiment [1], in [2], in experiment [3], in experiment [4], in experiment [5] and in experiment [6] was > 30 µM (inactive) in each case. In addition, the Kd in experiment [7] was > 30 µM (inactive); in experiment [8], > 30 µM (inactive); in [9] it was > 30 µM (inactive); at Actin-related protein 2, > 30 µM (inactive); in experiment [10], 0.584 µM (active); in [11] it was > 30 µM (inactive). In addition, the Kd in experiment [12] was 0.09 µM (active).
Regarding `CNC(=O)c1ccc(Nc2ncc(C(F)(F)F)c(NCc3nccnc3N(C)S(C)(=O)=O)n2)cc1` [DEFACTINIB], the Kd in experiment [1], in experiment [2], in experiment [3], in experiment [4], in [5] and in experiment [6] was > 30 µM (inactive) in each case. Further, the Kd was > 30 µM (inactive) in experiment [7]; > 30 µM (inactive) in [8]; > 30 µM (inactive) in experiment [9]; 1.2 µM (active) in experiment [10]; > 30 µM (inactive) in experiment [11]; > 30 µM (inactive) in experiment [12].
For the compound `COc1cc(F)c(F)c(Nc2ccc(I)cc2F)c1NS(=O)(=O)C1(C[C@H](O)CO)CC1` [REFAMETINIB], the Kd in [1], in [2], in [3], in experiment [4], in experiment [5] and in experiment [6] was > 30 µM (inactive) in each case. In addition, the Kd in experiment [7], in experiment [8], in experiment [9], in [10], in [11] and in experiment [12] was > 30 µM (inactive) in each case.
With `COc1cc2ncnc3c2cc1OCCCCCN(C)Cc1ccc(Br)cc1N3` [JNJ-26483327], the Kd in [1], in experiment [2], in [3], in [4], in experiment [5] and in [6] was > 30 µM (inactive) each time. Further, the Kd in experiment [7], in experiment [8], in experiment [9], in experiment [10], in experiment [11] and in [12] was > 30 µM (inactive) in each case.
